Assay results as given in US20250288570A1, “TREATMENT OF NEUROLOGICAL DISORDERS” (Praxis Precision Medicines, Inc., priority 2022, published 2025).
Entries after “also recorded” stand apart in the source; their conditions may differ.

Assays:
human Nav1.6 [1] = target: T1, human Nav1.6 (Homo sapiens, UniProt Q9UQD0); assay: ATX-II activated late (persistent) INa block, automated patch clamp in HEK cells; type: cell-based; settings: for Persistent INa Hill slope: hNav1.6 in HEK cells; for inhibition of and preference for persistent INa (in words): hNav1.6
T1 construct: HEK-293 cell lines stably expressing human Nav1.6 (NP_055006) were used; expressed in transfected cells

human Nav1.6 [2] = target: T1, human Nav1.6; assay: Peak INa use-dependent block (UDB-10 Hz), automated patch clamp in HEK cells; type: cell-based; settings: for Peak INa UDB-10 Hz Hill slope: use-dependent block; for activity dependent block of peak INa (in words): hNav1.6
hNav1.6 = target: T2, hNav1.6 (Homo sapiens, UniProt Q9UQD0); assay: Peak INa voltage-dependent block (VDB), automated patch clamp in HEK cells; type: cell-based
T2 construct: expressed in transfected cells; host or cells: HEK cells

human Nav1.6 [3] = target: T1, human Nav1.6; assay: Peak INa tonic block (TB), automated patch clamp in HEK cells; type: cell-based; settings: ratio of peak INa (TB) to persistent INa IC50
[4] = tested on: MES-induced tonic hindlimb extension in male CD-1 mice; assay: MES acute seizure model, tonic hindlimb extension, Example 9; type: in vivo, mouse; settings: for ED50: Mus musculus, read-out: ED50 value, protection from MES-induced tonic hindlimb extension
Description: The maximal electroshock (MES) acute seizure model of generalized seizures is validated for evaluating the anticonvulsant potential of compounds. […] The objective of this study was to evaluate the effect of Compound 1 on maximal electroshock induced seizure in male CD-1 mice.
Male CD-1 mice (Vital River, Beijing, China) approximately 6 weeks old were obtained for the study. Body weights were between 20.5 grams and 38.5 grams at the time the experiments were carried out. […] Food and water were available ad libitum.
Treatment was conducted using Compound 1 and 35% 2-hydroxypropyl-β-cyclodextrin (35% HPBCD, used as a negative control). Compound 1 stock solution was prepared fresh each experiment day in 35% HPBCD and protected from light. The stock solution was diluted with vehicle for lower doses.
Mice were brought to the test room at least one hour before the start of the experiment. Mice were administered valproate (VPA; 400 mg/kg, intraperitoneally); or vehicle (35% HPBCD, 10 mL/kg, intraperitoneally); or Compound 1 (0.3 mg/kg, 1 mg/kg, 3 mg/kg or 10 mg/kg, orally) 30 minutes prior to the MES test.
The electroshock apparatus was set to deliver a 50 mA square-wave stimulus, with a 0.8 second duration, a pulse width of 10 milliseconds, and a frequency of 50 Hz. A pair of custom stainless-steel electrodes were soaked in 0.2% agar, and then the subject received bilateral transauricular stimulation through ear-clip electrodes. During the stimulation, mice were manually restrained then released immediately into an observation cage where they were monitored continuously for 60 seconds by an observer blinded to treatment group.
Mice were anesthetized with CO2 and terminal plasma and brain tissue samples were collected. […] The supernatant plasma was pipetted into Eppendorf tubes.
All statistical analyses were conducted using GraphPad Prism 9.3. Means were combined and standard error was calculated using the Satterthwaite Approximation to combine standard deviations. […] ED50 and EC50 values were calculated from these fit curves.

[5] = tested on: psychomotor seizures induced by 6-Hz electrical stimulation in CD-1 mice; assay: 6-Hz psychomotor seizure model (32 and 44 mA); type: in vivo, mouse; settings: 600 mg/kg intraperitoneally
Excerpt: The 6-Hz test is a validated model of focal seizures for evaluating the anti-seizure potential of compounds. The 6-Hz seizure model can be performed at different stimulation intensities (32 or 44 mA), with the higher intensity (44 mA) used as a model of pharmacoresistant seizures. The positive control valproate is an approved anti-seizure medicine (ASM).
This study evaluated the efficacy of Compound 1 in attenuating psychomotor seizures induced by 6-Hz electrical stimulation at two different stimulation intensities (32 and 44 mA) in wild-type CD-1 mice. Psychomotor seizures are defined as the expression of at least one of the following behaviors: stun/immobility, forelimb clonus, straub tail or lateral head movement within 30 seconds of the stimulus. Protection is defined as a complete absence of the above behaviors within 30 seconds of the stimulus. Doses of Compound 1 used were 1 mg/kg, 3 mg/kg and 6 mg/kg administered orally. Valproate (600 mg/kg, administered intraperitoneally) was used as a positive control.
Male CD-1 mice (Charles River Laboratories; St. Constant, Quebec, CAN) were used for the study. Body weights at the time the experiment was carried out were 30-40 grams. The mice were group-housed in polycarbonate cages according to standard operating procedures. Animals were maintained on a 12-hour light/12 hour dark cycle, with all experimental activities occurring during the light phase. Food and water were available ad libitum. Mice acclimated to the test facility for at least 72 hours prior to testing.
Treatment was conducted using Compound 1 and 35% 2-hydroxypropyl-β-cyclodextrin (35% HPBCD, used as a negative control). Compound 1 stock solution was prepared fresh each experiment day in 35% HPBCD. […] Valproate was prepared fresh each experiment day in a vehicle of saline and dosed at 10 mL/kg.
Mice were administered vehicle (35% HPBCD), a single dose of Compound 1 (1 mg/kg, 3 mg/kg or 6 mg/kg) or valproate (600 mg/kg). Vehicle and Compound 1 were administered via oral gavage 30 minutes prior to […]. Valproate was administered as an intraperitoneal injection 60 minutes prior to the electrical stimulus.
Immediately prior to conducting the 6-Hz seizure test, a brief neurological assessment was performed. Each animal was visually assessed and received a score from 0 to 3 according to the following scoring system: neurological score of 0 corresponds to a normal status; neurological score of 1 corresponds to a modest decrease in spontaneous activity; neurological score of 2 corresponds to a marked decrease in spontaneous activity; and neurological score of 3 corresponds to loss of righting reflex.
Corneal electrodes moistened with saline (ECT unit 57800; Ugo Basile) were used to deliver the electrical stimulus (6-Hz, 0.2 millisecond pulse width, 3 seconds duration). The current delivered was either 32 mA or 44 mA. Immediately after the electrical stimulus, each mouse was monitored continuously for 30 seconds by an observer blinded to the treatment group. […] Mice were scored for the presence or absence of each seizure behavior, with a maximum total score of 4. […] At the end of the 6-Hz seizure test, plasma and brain samples were collected.
Mice were anesthetized with isoflurane, whole blood was collected via cardiac puncture and brains were harvested. […] Plasma and brain samples were stored at −80° C. and analyzed to determine levels of Compound 1. […]

[6] = tested on: MES-induced seizures in male CD-1 mice; assay: Maximal electroshock (MES) induced seizure test, Example 3; type: in vivo, mouse; settings: dose response
Description: The maximal electroshock (MES) test is a validated model for evaluating anti-seizure potential of compounds. […] The object of these studies was to evaluate the effect of Compound 1 (0.3, 1, 3 and 10 mg/kg p.o. (oral)) to attenuate MES-induced seizures in male CD-1 mice.
(§1) Food and water were available ad libitum.
Dosing solutions were prepared on each experiment day. […] VPA was prepared in saline (Vehicle 1). All solutions were protected from light. All compounds and vehicles were dosed at 10 ml/kg.
The MES test was carried out over two days with half of the mice from each treatment group being tested on each day. Mice were brought to the test room at least one hour before the start of the experiment. […] Mice were randomly assigned into one of the six treatment groups.
Animals were p.o. (oral) administered Compound 1 or 35% HPBCD (Vehicle 2) 30 minutes prior to the MES test or i.p. administered VPA or saline (Vehicle 1) 30 minutes prior to the MES test.
A Grass S88× (Grass Technologies of Astro-Med, Inc., West Warwick, RI) Stimulus Isolation Unit (A385, WPI Inc., USA) was set to deliver a 50 mA square-wave stimulus, with a 0.8 second duration, a pulse width of 10 msec, and a frequency of 50 Hz. […] Each mouse was observed continuously by individuals blinded to treatment conditions and results were recorded. […]
From these fitted curves, ED50 and EC50 values were calculated.

[7] = tested on: spontaneous locomotor activity in male CD-1 mice; assay: Spontaneous locomotor activity (sLMA) test, Example 4; settings: mouse, in vivo
Description: The Spontaneous Locomotor Activity (sLMA) test is a validated model for evaluating the potential motor side effects of compounds. The objective of this study was to evaluate the effect of Compound 1 (3, 5.6, 10 and 20 […], p.o.) on spontaneous locomotor activity (sLMA) in male CD-1 mice at 30 minutes post-dose.
as §1
Dosing solutions were prepared on each experiment day. […] All solutions were protected from light. Samples from dosing solutions were stored at 4° C.
The sLMA test was carried out over two days. Half of the mice from each treatment group was tested on each day.
Animals were p.o. administered Compound 1 or 35% HPBCD (vehicle) 30 minutes prior to the sLMA test.
All mice were anesthetized with CO2. […] The supernatant plasma was pipetted into Eppendorf tubes.

[8] = 400 mg/kg intraperitoneally, listed as valproate

T1 sequence (Q9UQD0 whole entry): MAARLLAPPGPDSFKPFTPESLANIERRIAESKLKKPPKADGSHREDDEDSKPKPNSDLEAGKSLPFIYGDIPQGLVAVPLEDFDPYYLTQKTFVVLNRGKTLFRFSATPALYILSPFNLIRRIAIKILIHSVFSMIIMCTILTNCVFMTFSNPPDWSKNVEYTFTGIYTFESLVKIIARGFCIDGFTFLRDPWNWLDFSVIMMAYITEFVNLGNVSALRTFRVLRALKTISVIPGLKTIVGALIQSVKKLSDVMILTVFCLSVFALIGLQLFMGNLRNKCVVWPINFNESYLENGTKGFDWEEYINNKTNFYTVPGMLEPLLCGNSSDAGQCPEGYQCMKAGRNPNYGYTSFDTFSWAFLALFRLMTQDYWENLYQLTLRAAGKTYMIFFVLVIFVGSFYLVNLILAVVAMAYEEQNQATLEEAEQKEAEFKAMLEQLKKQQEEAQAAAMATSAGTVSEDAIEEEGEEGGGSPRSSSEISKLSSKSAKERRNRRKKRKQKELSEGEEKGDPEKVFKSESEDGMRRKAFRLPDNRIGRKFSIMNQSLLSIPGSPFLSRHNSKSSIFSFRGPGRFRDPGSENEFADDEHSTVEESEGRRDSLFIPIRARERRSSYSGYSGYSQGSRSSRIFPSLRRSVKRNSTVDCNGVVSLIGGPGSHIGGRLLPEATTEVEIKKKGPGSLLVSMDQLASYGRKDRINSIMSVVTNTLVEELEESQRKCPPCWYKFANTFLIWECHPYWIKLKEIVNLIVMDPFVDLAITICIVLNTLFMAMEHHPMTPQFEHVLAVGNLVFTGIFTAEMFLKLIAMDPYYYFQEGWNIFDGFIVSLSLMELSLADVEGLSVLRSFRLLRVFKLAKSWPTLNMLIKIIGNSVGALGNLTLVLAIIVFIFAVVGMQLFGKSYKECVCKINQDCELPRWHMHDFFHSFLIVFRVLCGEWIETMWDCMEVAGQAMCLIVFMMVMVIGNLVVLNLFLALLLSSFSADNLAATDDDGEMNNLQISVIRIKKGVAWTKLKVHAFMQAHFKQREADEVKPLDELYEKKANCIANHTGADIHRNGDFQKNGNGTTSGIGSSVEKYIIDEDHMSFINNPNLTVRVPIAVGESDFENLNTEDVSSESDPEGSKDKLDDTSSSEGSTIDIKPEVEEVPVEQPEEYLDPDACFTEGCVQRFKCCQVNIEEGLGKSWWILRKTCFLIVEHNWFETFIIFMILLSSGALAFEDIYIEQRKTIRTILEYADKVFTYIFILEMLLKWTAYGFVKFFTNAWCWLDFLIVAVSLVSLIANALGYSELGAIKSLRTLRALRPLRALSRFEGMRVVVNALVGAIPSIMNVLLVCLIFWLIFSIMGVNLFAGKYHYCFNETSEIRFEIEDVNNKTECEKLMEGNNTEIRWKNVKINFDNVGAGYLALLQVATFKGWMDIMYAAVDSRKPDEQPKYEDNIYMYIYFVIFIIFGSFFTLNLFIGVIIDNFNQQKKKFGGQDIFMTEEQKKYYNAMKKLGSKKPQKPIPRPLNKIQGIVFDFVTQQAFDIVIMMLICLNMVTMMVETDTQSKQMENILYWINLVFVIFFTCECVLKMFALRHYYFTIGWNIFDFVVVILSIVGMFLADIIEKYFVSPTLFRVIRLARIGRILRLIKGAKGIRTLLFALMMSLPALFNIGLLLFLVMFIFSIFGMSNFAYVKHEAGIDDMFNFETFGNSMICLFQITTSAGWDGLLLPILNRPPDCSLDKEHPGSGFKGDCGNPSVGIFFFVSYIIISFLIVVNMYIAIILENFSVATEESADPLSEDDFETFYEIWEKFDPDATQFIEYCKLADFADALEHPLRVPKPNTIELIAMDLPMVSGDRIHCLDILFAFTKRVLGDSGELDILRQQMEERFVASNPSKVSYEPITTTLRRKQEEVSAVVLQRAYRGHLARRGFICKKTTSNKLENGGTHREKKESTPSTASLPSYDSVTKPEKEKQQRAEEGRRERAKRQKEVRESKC
T2 sequence (Q9UQD0 whole entry): as above

COC[C@@H](NC(C)=O)C(=O)NCc1ccccc1 [Lacosamide, lacosamide]
Persistent INa Hill slope (human Nav1.6 [1]): (0.9) | Peak INa UDB-10 Hz Ratio to Pers. INa (human Nav1.6 [2]): 0.8 | Peak INa UDB-10 Hz Hill slope (human Nav1.6 [2]): (1.3) | Peak INa VDB Hill slope (hNav1.6): (1.2) | Peak INa VDB Ratio to Pers. INa (hNav1.6): 0.3

NC(=O)N1c2ccccc2CC(=O)c2ccccc21 [Oxcarbazepine, oxcarbazepine]
Persistent INa Hill slope (human Nav1.6 [1]): (1.0) | Peak INa TB Ratio to Pers. INa (human Nav1.6 [3]): 8 | Peak INa VDB Hill slope (hNav1.6): (1.1) | Peak INa VDB Ratio to Pers. INa (hNav1.6): 0.3

CCCC(CCC)C(=O)O [Valproic acid]
sedation before MES test (in words) ([4]; 400 mg/kg intraperitoneally, listed as Valproate): mild to moderate sedation | protection against MES-induced hindlimb extension (in words) [4, 8]: all mice n=24 were seizure-free; also recorded: protected mice from MES-induced tonic hindlimb extension | sedation before MES test (in words) [4, 8]: nearly all valproate-treated mice showed mild to moderate sedation | average neurological score [5]: 1.2 | neurological scores / spontaneous activity ([5]; listed as valproate): modest to marked decrease in spontaneous activity

Nc1nnc(-c2cccc(Cl)c2Cl)c(N)n1 [Lamotrigine, lamotrigine]
inhibition of and preference for persistent INa (in words) (human Nav1.6 [1]): lower potency and preference for persistent INa | Persistent INa Hill slope (human Nav1.6 [1]): (1.0) | activity dependent block of peak INa (in words) (human Nav1.6 [2]): minimal activity dependent block of peak INa | Peak INa UDB-10 Hz Hill slope (human Nav1.6 [2]): (1.0) | Peak INa VDB Hill slope (hNav1.6): (0.9) | protection against MES-induced seizures (in words) [6]: dose-dependent protection from MES-induced seizures | sLMA dose response (in words) [7]: dose-dependent reductions in sLMA | ED50 ([4]; male CD-1 mice): 3.8 to 5.4 mg/kg

Cc1cc(N2CCc3cc(F)ccc3C2)cc(C)c1NC(=O)CC(C)(C)C [XEN1101]
ED50 ([4]; male CD-1 mice): 3.8 to 5.4 mg/kg

NC(=O)O[C@@H](Cn1ncnn1)c1ccccc1Cl [Cenobamate, cenobamate]
persistent INa preference to TB (human Nav1.6 [1]): 24 × | Persistent INa Hill slope (human Nav1.6 [1]): (1.1) | Peak INa TB Ratio to Pers. INa (human Nav1.6 [3]): 24 | Peak INa UDB-10 Hz Ratio to Pers. INa (human Nav1.6 [2]): 11 | UDB preference to TB (human Nav1.6 [2]): 2.3 × | Peak INa UDB-10 Hz Hill slope (human Nav1.6 [2]): (0.7) | Peak INa VDB Hill slope (hNav1.6): (0.9) | Peak INa VDB Ratio to Pers. INa (hNav1.6): 0.9 | ED50 ([4]; male CD-1 mice): 3.8 to 5.4 mg/kg | ED50 value, protection from MES-induced tonic hindlimb extension ([4]; male CD-1 mice): 4.1 mg/kg

O=C1NC(=O)C(c2ccccc2)(c2ccccc2)N1 [Phenytoin, phenytoin]
Persistent INa Hill slope (human Nav1.6 [1]): (0.8) | Peak INa UDB-10 Hz Ratio to Pers. INa (human Nav1.6 [2]): 15 | Peak INa UDB-10 Hz Hill slope (human Nav1.6 [2]): (0.6) | Peak INa VDB Hill slope (hNav1.6): (1.0) | Peak INa VDB Ratio to Pers. INa (hNav1.6): 0.8

NC(=O)N1c2ccccc2C=Cc2ccccc21 [Carbamazepine, carbamazepine]
persistent INa preference to TB (human Nav1.6 [1]): 30 × | inhibition of and preference for persistent INa (in words) (human Nav1.6 [1]): lower potency and preference for persistent INa | Persistent INa Hill slope (human Nav1.6 [1]): (1.1) | Peak INa TB Ratio to Pers. INa (human Nav1.6 [3]): 30 | Peak INa UDB-10 Hz Ratio to Pers. INa (human Nav1.6 [2]): 18 | UDB preference to TB (human Nav1.6 [2]): no UDB observed | activity dependent block of peak INa (in words) (human Nav1.6 [2]): minimal activity dependent block of peak INa | Peak INa UDB-10 Hz Hill slope (human Nav1.6 [2]): (0.9) | Peak INa VDB Hill slope (hNav1.6): (0.9) | Peak INa VDB Ratio to Pers. INa (hNav1.6): 0.6 | protection against MES-induced seizures (in words) [6]: dose-dependent protection from MES-induced seizures | sLMA dose response (in words) [7]: dose-dependent reductions in sLMA | ED50 ([4]; male CD-1 mice): 3.8 to 5.4 mg/kg
